We go through seven compounds from ChEMBL document CHEMBL1128111, “Synthesis and biological activity of a series of 4-aryl substituted benz[b]azepines: Antagonists at the strychnine-insensitive glycine site” (Bioorg Med Chem Lett, 1995).

Activity calls are given as the source filed them. The calls are words filed in the database; no cut-off is given here.

In the first assay the target is T1, Glutamate NMDA receptor (Rattus norvegicus) (UniProt P35439+Q00959+Q00960+Q00961+Q62645+Q8VHN2+Q9R1M7). As to the kind of experiment: The compound was tested in vivo for its effect on the NMDA receptor complex following administration by iv infusion in red nucleus assay; Inactive. Type of assay: organism-based.
For `O=c1[nH]c2cc(Cl)ccc2c(O)c(-c2cccnc2)c1=O`, the outcome was inactive.

The next assay deals with T1, Glutamate NMDA receptor (Rattus norvegicus). As to the kind of experiment: The compound was tested in vivo for its effect on the NMDA receptor complex following administration by iv infusion in red nucleus assay. The class given is organism-based. Set-up: unit not given here.
Take `O=c1[nH]c2cc(Cl)ccc2c(O)c(-c2ccccn2)c1=O`: the Activity is 1.7. On the same count and under the same terms, with `COc1ccc(-c2c(O)c(=O)[nH]c3cc(Cl)ccc3c2=O)cc1` the figure was 9.9. Same read-out and setting: the value for `O=c1[nH]c2cc(Cl)ccc2c(O)c(-c2ccco2)c1=O` was 5; that for `COc1cccnc1-c1c(O)c(=O)[nH]c2cc(Cl)ccc2c1=O` was 2.8. Still for that read-out and setting: with `O=c1[nH]c2cc(Cl)ccc2c(O)c(-c2cccs2)c1=O` the figure was 5.6; with `O=c1[nH]c2cc(Cl)ccc2c(O)c(-c2ccccc2)c1=O`, 9.4.
